According to EP0996337B1, “A PROCESS OF DELIVERING A POLY[…] THE VASCULAR SYSTEM” (Mirus Bio Corporation, priority 1997, dated 1998):

Experiment: Serum ALT and GGT after injections in mice
Format: in vivo
Details: positive control, one day after intraperitoneal injection of 40 µl of 50% in mineral oil, n=4
Experimental: Blood obtained from the retro-orbit sinus was analyzed for serum concentration of hGH using the RIA, HGH-TGES 100T kit from Nichols Institute (San Juan Capistrano, CA). Serum ALT and GGT levels were done using EKTACHEM DT slides and a KODAK EKTACHEM DT 60 ANALYZER as recommended by the manufacturer (Kodak. Rochester, NY)
Similar results were also obtained when bile ducts were injected with 100 µg of pCILuc in 1 ml of 15% mannitol and 2.5 units heparin/ml in normal saline solution. A mean total luciferase protein/liver of 15.39 µg/liver (Fig. 1A. BD+CL) was obtained when the hepatic vein was clamped as compared to a mean total luciferase protein/liver of 1.33 µg/liver (Fig 1A. BD-CL) without occluding the hepatic vein If mannitol was omitted then the bile duct injections without clamping any blood vessels yielded approximately 15-fold less luciferase (0 086 µg/liver ± 0.06, n = 25). […] Serum ALT and GGT assays were performed on mice one and eight days after each of the above injections with pCILuc (4 mice for each condition). No increases in […] were observed after any of the injections including the bile duct injections. Serum ALT levels increased to 200-400 U/L one day after portal vein and bile duct injections. One day after IVC injections serum ALT levels increased to ∼1500 U/L in half of the mice but was only ∼250 U/L in the other half. […]

ClC(Cl)(Cl)Cl [carbon tetrachloride]
Serum ALT, average: 25,900 U/L
